How the values were obtained:
Format in all cases: in vivo
[1] = test system: Echinochloa crus-galli (ECHCG); assay: Pre-emergence herbicidal test; conditions: 1000 g/ha, evaluated after 13 days
[2] = test system: Abutilon theophrasti (ABUTH); assay: Pre-emergence herbicidal test; conditions: 1000 g/ha, evaluated after 13 days
Setaria faberi (SETFA) [3] = assay: Pre-emergence herbicidal test; conditions: 1000 g/ha, evaluated after 13 days
[4] = test system: Ipomoea hederacea (IPOHE); assay: Pre-emergence herbicidal test; conditions: 1000 g/ha, evaluated after 13 days
[5] = test system: Echinochloa crus-galli (ECHCG); assay: Post-emergence herbicidal test; conditions: 1000 g/ha unless otherwise stated, evaluated after 13 days
Protocol: (§1) Seeds of a variety of test species are sown in standard soil in pots (Amaranthus retoflexus (AMARE), Solanum nigrum (SOLNI), Setaria faberi (SETFA), Lolium perenne (LOLPE), Echinochloa crus-galli (ECHCG), Ipomoea hederacea (IPOHE), Abutilon theophrasti (ABUTH), Zea mays (ZEAMX)). After 8 days cultivation under controlled conditions in a glasshouse (at 24° C./16° C., day/night; 14 hours light; 65% humidity), the plants are sprayed with an aqueous spray solution derived from the formulation of the technical active ingredient in acetone/water (50:50) solution containing 0.5% Tween 20 (polyoxyethelyene sorbitan monolaurate, CAS RN 9005-64-5). Compounds are applied at 1000 g/ha unless otherwise stated. The test plants are then grown in a glasshouse under controlled conditions in a glasshouse (at 24° C./16° C., day/night; 14 hours light; 65% humidity) and watered twice daily. After 13 days the test is evaluated for the percentage damage caused to the plant. The biological activities are shown in the following table on a five-point scale (5=81-100%; 4=61-80%; 3=41-60%; 2=21-40%; 1=10-20%; 0=0%;−=not tested).

[6] = test system: Amaranthus retoflexus (AMARE); assay: Post-emergence herbicidal test; conditions: 1000 g/ha unless otherwise stated, evaluated after 13 days
Protocol: as §1

[7] = test system: Abutilon theophrasti (ABUTH); assay: Post-emergence herbicidal test; conditions: 1000 g/ha unless otherwise stated, evaluated after 13 days
Protocol: as §1

Zea mays (ZEAMX) [8] = assay: Post-emergence herbicidal test; conditions: 1000 g/ha unless otherwise stated, evaluated after 13 days
Protocol: as §1

Setaria faberi (SETFA) [9] = assay: Post-emergence herbicidal test; conditions: 1000 g/ha unless otherwise stated, evaluated after 13 days
Protocol: as §1

[10] = test system: Ipomoea hederacea (IPOHE); assay: Post-emergence herbicidal test; conditions: 1000 g/ha unless otherwise stated, evaluated after 13 days
Protocol: as §1

Zea mays (ZEAMX) [11] = assay: Pre-emergence herbicidal test; conditions: 1000 g/ha, evaluated after 13 days
[12] = test system: Amaranthus retoflexus (AMARE); assay: Pre-emergence herbicidal test; conditions: 1000 g/ha, evaluated after 13 days

SMILES	percentage damage caused to the plant, five-point scale, ECHCG [1]	percentage damage caused to the plant, five-point scale, ABUTH [2]	percentage damage caused to the plant, five-point scale, SETFA (Setaria faberi (SETFA) [3])	percentage damage caused to the plant, five-point scale, IPOHE [4]	percentage damage caused to the plant, ECHCG (five-point scale) [5]	percentage damage caused to the plant, AMARE (five-point scale) [6]	percentage damage caused to the plant, ABUTH (five-point scale) [7]	percentage damage caused to the plant, ZEAMX (five-point scale) (Zea mays (ZEAMX) [8])	percentage damage caused to the plant, SETFA (five-point scale) (Setaria faberi (SETFA) [9])	percentage damage caused to the plant, IPOHE (five-point scale) [10]	percentage damage caused to the plant, five-point scale, ZEAMX (Zea mays (ZEAMX) [11])	percentage damage caused to the plant, five-point scale, AMARE [12]
CCOC(=O)c1nn(-c2ccc(OC(F)(F)F)cc2)c2cccc(SCC)c2c1=O [Compound P23, ethyl 5-ethylsulfanyl-4-oxo-1-[4-(trifluoromethoxy)phenyl]cinnoline-3-carboxylate]	0 (0=0%)	0 (0=0%)	0 (0=0%)	0 (0=0%)	1 (1=10-20%)	0 (0=0%)	1 (1=10-20%)	1 (1=10-20%)	1 (1=10-20%)	1 (1=10-20%)	1 (1=10-20%)	0 (0=0%)
CCOC(=O)c1nn(-c2ccc(OC(F)(F)F)cc2)c2cccc([S+]([O-])CC)c2c1=O (stereo not drawn) [Compound P24, ethyl 5-ethylsulfinyl-4-oxo-1-[4-(trifluoromethoxy)phenyl]cinnoline-3-carboxylate]	0 (0=0%)	0 (0=0%)	0 (0=0%)	0 (0=0%)	1 (1=10-20%)	1 (1=10-20%)	1 (1=10-20%)	1 (1=10-20%)	0 (0=0%)	0 (0=0%)	0 (0=0%)	0 (0=0%)
CC[S+]([O-])c1cccc2c1c(=O)c(C(=O)O)nn2-c1ccc(OC(F)(F)F)cc1 (stereo not drawn) [Compound P25, 5-ethylsulfinyl-4-oxo-1-[4-(trifluoromethoxy)phenyl]cinnoline-3-carboxylic acid]	0 (0=0%)	0 (0=0%)	1 (1=10-20%)	0 (0=0%)	1 (1=10-20%)	0 (0=0%)	1 (1=10-20%)	1 (1=10-20%)	2 (2=21-40%)	1 (1=10-20%)	0 (0=0%)	0 (0=0%)
CCSc1cccc2c1c(=O)c(C(=O)O)nn2-c1ccc(OC(F)(F)F)cc1 [Compound P26, 5-ethylsulfanyl-4-oxo-1-[4-(trifluoromethoxy)phenyl]cinnoline-3-carboxylic acid]	0 (0=0%)	0 (0=0%)	0 (0=0%)	0 (0=0%)	1 (1=10-20%)	0 (0=0%)	1 (1=10-20%)	1 (1=10-20%)	1 (1=10-20%)	0 (0=0%)	0 (0=0%)	1 (1=10-20%)

Source: patent US20230250066A1, “HERBICIDAL CINNOLINE DERIVATIVES” (SYNGENTA CROP PROTECTION AG, priority 2020, published 2023)
